Entries after “also recorded” stand apart in the source; their conditions may differ.
Experiments:
[1] = system: TCF/β-catenin reporter gene transcription in PC-12 PS-1/L286V cells; test: TOPFLASH luciferase assay in differentiated PC-12 cells; format: cell-based, Rat; details: PS-1/L286V mutant PC-12 cells; 10 μM plus NGF
Procedure: Differentiated PC-12/L286V cells were treated with increasing concentrations of this compound for 4 hours. Transfection was then initiated after this treatment period.
Transfection. PC-12 cells were cultured and differentiated on 60-mm dishes. At the end of the 10-day differentiation period, cells were transfected with 2 μg reporter constructs, TOPFLASH and FOPFLASH, per 60-mm dish. Transfections were performed using Superfect (Qiagen) according to manufacturer's instructions.
Luciferase Assays. Cells were lysed, 6 hours after transfections, in 100 μl of Cell Culture Lysis Reagent (Promega, Madison, Wis.), and scraped into microcentrifuge tubes. Tubes were then centrifuged briefly (about 10 seconds) at 12000 rpm to pellet cell debris. Luciferase activity was measured on 20 μl of cell lysate and 100 μl substrate from the Luciferase Assay System (Promega). Luciferase activity was measure using Packard LumiCount. (Hewlett Packard). Quantitation of luciferase was performed in triplicates, and repeated in at least three independent experiments.

[2] = system: Ephrin B2 (EphB2) receptor in PC-12 PS-1/L286V cells; test: EphB2 receptor expression (immunofluorescence and RT-PCR); format: cell-based, Rat; details: PS-1/L286V mutant PC-12 cells; 10 μM
Procedure: Immunofluorescence. Cells were plated at a density of 10,000 cells/cm^2 on sterile coated 22×22 mm coverslips in a 6-well culture plate. Differentiation was initiated, as previously described, for 10 days. The differentiated cells were then fixed in methanol for 15 minutes at −20° C. This is followed by a 15 minutes incubation with PBS+0.1% Triton X-100. The coverslips were incubated with antibodies raised against Ephrin B2 Receptor (Santa Cruz Biotechnology) and Gap-43 (Novus Biologicals) for 40 minutes at 37° C. After a series of washes with PBS-Triton X-100, secondary antibody conjugated to FITC (Jackson ImmunoResearch, Westgrove, Pa.) was applied. All slides images were acquired using a Nikon PCM2000 Laser Scanning Confocal Microscope mounted on a Nikon Eclipse E600 upright microscope (Nikon, Melville, N.Y.).
RT-PCR. To analyze the mRNA levels for Ephrin B2 (EphB2) receptor, total RNA was isolated using Trizol (Invitrogen-GIBCO-BRL, Baltimore, Md.) from differentiated cells. 2 μg RNA was reverse transcribed in a total volume of 20 μl with random hexamer (50 ng), and using the Superscript II reverse transcription system (Invitrogen-GIBCO-BRL), according to manufacturer's guidelines. PCR was carried out in a 50 μl volume containing 5 μl cDNA, 100 pmol primers, 100 μM dNTPs, 1×Taq buffer and 1.5 mM MgCl2. […]

HCT116 cells = test: Flow cytometric analysis (FACS) of cell cycle; format: cell-based; details: 25 μM, 24 hours
Procedure: (§1) For FACS analysis, approx. 5×10^6 cells from Compound D-treated or vehicle-treated were fixed with 70% chilled ethanol and stored at −20° C. for at least 30 minutes. The cells were washed once with 1×PBS and incubated with propidium iodine (PI) solution (85 μg/ml propidium iodine, 0.1% Nonidet P-40, 10 mg/ml RNAse) for 30 minutes at room temperature. 10,000 stained cells for each sample were acquired using Beckman Coulter EPICS XL-MCL Flow Cytometry and the percentage of cells in different phase of the cell cycle was determined by Expo32 ADC software (Coulter Corporation, Miami, Fla., 33196).
(§2) It has been shown that inhibition of the expression of the cyclin D1 gene causes arrest at the G1/S-phase of the cell cycle (Shintani et al., “Infrequent alternations of RB pathway (Rb-p16INK4A-cyclin D1) in adenoid cystic carcinoma of salivary glands,” Anticancer Res. 20:2169-75 (2000)). […] The cells were subsequently stained with propidium iodide (PI) and analyzed for DNA content by FACS cytofluorometry.

SW480 cells = test: Flow cytometric analysis (FACS) of cell cycle; format: cell-based; details: 25 μM, 24 hours
Procedure: as §1, §2

[3] = system: caspase-3/7 in HCT116 cells; test: Caspase-3/7 activity assay; format: cell-based; details: 25 μM, 24 hours, compared to CCD18Co cells
Procedure: (§3) SW480, HCT116, and CCD18Co cells were plated at 10^5 cells per well (96-well plates) for 24 hours prior to treatment. […] 24 hours post treatment, cells were lysed and caspase activity was measured using a caspase-3/7 activity kit (Apo-One Homogeneous caspase-3/7 assay, #G77905, Promega). Relative fluorescence units (RFU) were obtained by subtracting the unit values of the blank (control, without cells) from the experimental measured values.

[4] = system: caspase-3/7 in SW480 cells; test: Caspase-3/7 activity assay; format: cell-based; details: 25 μM, 24 hours, compared to CCD18Co cells
Procedure: as §3

[5] = system: survivin promoter in wild type, CBP+/−, p300+/− 3T3 cells; test: Survivin promoter luciferase reporter in 3T3 cells; format: cell-based
Text: A plasmid containing luciferase under the control of survivin promoter was constructed and transfected into wild type, CBP+/−, or p300+/−3T3 cells.

[6] = system: survivin promoter in SW480 cells; test: Survivin luciferase reporter in SW480 cells; format: cell-based; details: SW480 cells; various concentrations
[7] = system: survivin promoter occupancy by CBP, β-catenin, Tcf4 and acetylated histone; test: ChIP assay on SW480 cells; format: cell-based; details: 25 μM, 18 hours
survivin in SW480 cells = test: Survivin immunofluorescence microscopy; format: cell-based
caspase 3 = test: Caspase 3 activity in cultured tumor cells; format: cell-based
cultured tumor cells = test: Cell death of cultured tumor cells; format: cell-based; details: 5.0 μM
[8] = molecular target: β-catenin/p300 interaction (Homo sapiens, UniProt Q09472); details: Emami et al., Cancer Cell, in press; cited from earlier work
Sequence of β-catenin/p300 interaction (Q09472 whole entry): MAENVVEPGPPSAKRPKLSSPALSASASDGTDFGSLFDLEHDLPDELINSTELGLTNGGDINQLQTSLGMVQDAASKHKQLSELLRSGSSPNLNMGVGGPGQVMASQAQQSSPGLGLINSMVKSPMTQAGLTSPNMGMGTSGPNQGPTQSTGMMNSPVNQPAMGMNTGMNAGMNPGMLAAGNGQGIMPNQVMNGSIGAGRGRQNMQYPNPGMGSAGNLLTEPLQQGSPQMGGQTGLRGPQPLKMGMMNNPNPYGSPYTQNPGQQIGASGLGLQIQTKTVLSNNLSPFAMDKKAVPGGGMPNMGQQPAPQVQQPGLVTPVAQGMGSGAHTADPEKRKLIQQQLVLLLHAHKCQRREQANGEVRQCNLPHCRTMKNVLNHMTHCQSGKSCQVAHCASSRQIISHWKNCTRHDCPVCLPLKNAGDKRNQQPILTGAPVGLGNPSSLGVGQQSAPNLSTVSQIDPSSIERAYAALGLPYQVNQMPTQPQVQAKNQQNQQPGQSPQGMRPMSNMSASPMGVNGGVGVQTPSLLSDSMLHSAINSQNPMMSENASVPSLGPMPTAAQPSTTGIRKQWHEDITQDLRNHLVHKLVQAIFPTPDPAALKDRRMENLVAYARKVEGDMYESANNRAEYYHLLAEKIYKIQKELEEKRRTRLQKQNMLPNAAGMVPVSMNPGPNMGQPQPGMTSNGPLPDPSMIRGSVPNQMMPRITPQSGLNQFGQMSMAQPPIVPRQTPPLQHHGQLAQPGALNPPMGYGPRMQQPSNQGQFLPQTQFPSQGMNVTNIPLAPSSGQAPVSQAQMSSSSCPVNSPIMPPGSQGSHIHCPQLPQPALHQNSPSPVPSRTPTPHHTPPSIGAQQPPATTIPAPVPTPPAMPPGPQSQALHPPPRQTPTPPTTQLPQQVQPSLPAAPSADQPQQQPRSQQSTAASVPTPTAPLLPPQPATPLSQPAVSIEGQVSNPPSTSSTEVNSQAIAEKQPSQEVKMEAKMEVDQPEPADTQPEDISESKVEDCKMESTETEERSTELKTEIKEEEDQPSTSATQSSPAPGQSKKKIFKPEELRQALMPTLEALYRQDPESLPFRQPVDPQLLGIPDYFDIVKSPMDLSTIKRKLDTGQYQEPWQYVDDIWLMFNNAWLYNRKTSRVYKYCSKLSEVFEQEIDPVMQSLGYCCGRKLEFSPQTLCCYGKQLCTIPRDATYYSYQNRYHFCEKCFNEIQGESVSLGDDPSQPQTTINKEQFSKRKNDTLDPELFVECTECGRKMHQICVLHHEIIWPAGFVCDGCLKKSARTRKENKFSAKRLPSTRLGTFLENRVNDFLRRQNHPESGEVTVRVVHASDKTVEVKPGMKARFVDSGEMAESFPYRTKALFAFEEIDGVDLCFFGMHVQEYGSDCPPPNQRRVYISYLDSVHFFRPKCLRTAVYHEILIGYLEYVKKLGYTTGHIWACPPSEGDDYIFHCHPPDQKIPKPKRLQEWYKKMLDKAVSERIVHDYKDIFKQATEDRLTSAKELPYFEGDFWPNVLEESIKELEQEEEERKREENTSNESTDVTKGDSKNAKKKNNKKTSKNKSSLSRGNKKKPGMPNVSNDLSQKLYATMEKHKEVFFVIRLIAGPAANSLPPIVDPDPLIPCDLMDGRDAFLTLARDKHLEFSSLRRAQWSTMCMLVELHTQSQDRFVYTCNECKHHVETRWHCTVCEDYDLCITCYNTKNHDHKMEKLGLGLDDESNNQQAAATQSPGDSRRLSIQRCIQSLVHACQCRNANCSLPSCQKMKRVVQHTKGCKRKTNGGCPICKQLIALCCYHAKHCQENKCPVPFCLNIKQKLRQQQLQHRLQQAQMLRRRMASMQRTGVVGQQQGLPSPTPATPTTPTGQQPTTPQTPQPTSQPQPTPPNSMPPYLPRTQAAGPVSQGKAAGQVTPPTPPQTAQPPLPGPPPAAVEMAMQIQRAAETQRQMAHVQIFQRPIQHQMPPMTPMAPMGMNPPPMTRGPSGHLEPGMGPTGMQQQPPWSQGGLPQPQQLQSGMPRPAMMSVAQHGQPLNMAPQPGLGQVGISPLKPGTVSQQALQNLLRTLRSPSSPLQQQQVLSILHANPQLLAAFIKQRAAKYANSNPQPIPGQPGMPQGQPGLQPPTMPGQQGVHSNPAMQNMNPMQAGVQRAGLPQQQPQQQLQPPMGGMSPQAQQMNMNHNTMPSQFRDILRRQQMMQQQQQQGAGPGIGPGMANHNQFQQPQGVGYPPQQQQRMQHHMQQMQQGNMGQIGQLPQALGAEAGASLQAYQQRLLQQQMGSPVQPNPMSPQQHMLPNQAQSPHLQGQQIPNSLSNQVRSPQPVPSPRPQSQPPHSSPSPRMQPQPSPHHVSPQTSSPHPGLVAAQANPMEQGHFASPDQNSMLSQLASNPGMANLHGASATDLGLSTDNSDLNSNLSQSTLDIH

## O=C1[C@H](Cc2ccc(O)cc2)N2C(=O)CCN(C(=O)NCc3ccccc3)[C@H]2CN1Cc1cccc2ccccc12 [Compound D]
[1]
  TCF/β-catenin reporter gene transcription: decreased TCF/β-catenin reporter gene transcription
[2]
  EphB2 message (RT-PCR): increased EphB2 message; also recorded: upregulates EphB2 message
  EphB2 receptor expression (immunofluorescence): increased EphB2 receptor expression
HCT116 cells
  cell cycle distribution (PI, FACS): increased accumulation at G1/S-phase of the cell cycle; also recorded: arrests cells in G1
SW480 cells
  cell cycle distribution (PI, FACS): increased accumulation at G1/S-phase of the cell cycle; also recorded: arrests cells in G1
[3]
  caspase-3/7 activity: selectively activates caspases in colon carcinoma cell lines
[4]
  caspase-3/7 activity: selectively activates caspases in colon carcinoma cell lines
[5]
  survivin gene expression (luciferase under survivin promoter): reduces expression of the survivin gene; also recorded: knout-down
[5]; with Wnt1
  Wnt1 stimulation of survivin gene expression: decreases the stimulation of the survivin gene expression by Wnt1
[6]
  survivin luciferase reporter activity: inhibit expression of survivin; also recorded: inhibit the activity of a survivin luciferase reporter
[7]
  association of CBP, β-catenin, Tcf4 and acetylated histone with the survivin promoter (ChIP): decreases the association of all these proteins with the survivin promoter; also recorded: decreases the association of various proteins with the survivin promoter
Survivin in SW480 cells
  survivin protein (immunofluorescence microscopy): little or no survivin protein was detected
Caspase 3; co-treatment of stausporine (0.5 μM) and Compound D
  caspase 3 activity, co-treatment: synergic stimuation of the caspase 3 activity
Caspase 3; cultured tumor cells, 2.5 μM or 5.0 μM
  caspase 3 activity: activates the caspase 3 activity
Cultured tumor cells
  cell death: promotes cell death
[8]
  β-catenin/p300 interaction: not the β-catenin/p300 interaction
